Reference: US4137236A, “Amino-spiro[oxa(or thia)cycloalkane-penam]-carboxylic” (U C B, Societe Anonyme, priority 1977, dated 1979)
Blank lines part the entries; values can stand above or below the molecule they belong to.

Experiments:
[1] = test system: Staphylococcus aureus 52149; experiment: MIC in gelose culture medium (relative to reference penicillin); type: cell-based; settings: S.AUREUS 52149
Method: This is a Gram-positive coccus, the intrinsic sensitivity of the receptor of which is equivalent to that of the preceding strain but which produces a beta-lactamase which is typical of the species and which renders it resistant to all the penicillins which are sensitive to hydrolysis.
(§1) For a certain number of compounds of formula (XV), the minimum inhibitory concentration (MIC) was determined as follows:
(§2) The products to be tested are introduced in increasing concentrations into a gelose culture medium in Petri dishes. A multiple inoculator is used to deposit simultaneously drops (10 microliters) of inoculum (suspension of approximately 10^5 bacteria per ml) onto the surface of the medium. After incubation at 37° C for 24 hours, the growth of the bacteria is observed. By definition, the MIC is expressed by the minimum concentration of tested compound which inhibits the multiplication of the bacteia. In the following results, however, the MIC is given as being equal to 1 for the reference compounds and the activity figures given for the tested compounds of formula (XV) are, therefore, relative values. This presentation of the results is more correct and the most reproducible because, for one and the same bacterial strain, different MIC values can be observed if they are measured at different times. This is bound up with the "seasonal" variations in the strains and their nutrient medium.

Escherichia coli B = experiment: as above; type: cell-based; settings: E.COLI B
Method: This is a well-known collection strain of Escherichia coli which produces very little beta-lactamase (of type I) and is, therefore, very sensitive to penicillins. As regards the classification of the beta-lactamases, use is here made of that proposed by M. H. RICHMOND and R. B. SYKES (see Advances in Microbial Physiology,9,(1973),pp.43 and 45).
as §1, §2

[2] = test system: Staphylococcus aureus 6538; experiment: as above; type: cell-based; settings: S.AUREUS 6538
Method: This is a Gram-positive coccus which is particularly sensitive to penicillins and which has a low resistance mechanism. This strain of Staphylococcus is, therefore, representative of a maximum sensitivity of the species.
as §1, §2

[3] = test system: Escherichia coli B-Ampi R; experiment: as above; type: cell-based; settings: E.COLI B AMPI-R
Method: This is a mutant of the preceding strain which we have produced.
as §1, §2

beta-lactamase TEM [4] = experiment: Rate of hydrolysis by beta-lactamase measured as NaOH consumed per minute; type: biochemical
Description: This method allows the dosage of the penicilloic acid resulting from the hydrolysis of the beta-lactam function by the lytic enzyme. The results of these kinetics, as given in the following Table, clearly show the superiority of compounds E and H as compared with pencillin G.

Escherichia coli K 12-44 = experiment: MIC in gelose culture medium (relative to reference penicillin); type: cell-based; settings: E.COLI K 12-44; reference ampicillin = 1
Method: This is a mutant of Escherichia coli K 12, the typical reference parent strain of the species. This mutant is not a producer of beta-lactamase.
as §1, §2

[5] = test system: Escherichia coli K 12-44 R; experiment: as above; type: cell-based; settings: E.COLI K 12-44R; reference ampicillin = 1
Method: This strain is a pleiotropic mutant of Escherichia coli K 12-44, which we have produced. It is not a producer of beta-lactamase but, nevertheless, it has a resistance to penicillins, probably as a result of the modification of the permeability of the cell membranes.
as §1, §2

beta-lactamase P 99 = beta-lactamase P 99 (Enterobacter cloacae, UniProt P05364); experiment: Hydrolysis kinetics: residual activity in the presence of beta-lactamase; type: biochemical, Gram-negative bacteria
beta-lactamase TEM [6] = target: beta-lactamase TEM (Escherichia coli, UniProt P62593); experiment: as above; type: biochemical, Gram-negative bacteria
[7] = test system: Escherichia coli K 12-44 S; experiment: MIC in gelose culture medium (relative to reference penicillin); type: cell-based; settings: E.COLI K 12-44S; reference ampicillin = 1
Method: It is very sensitive to penicillins due to hyperpermeability.
as §1, §2

[8] = reference 6-amino-penicillanic acid = 1

Sequence of beta-lactamase P 99 (P05364 21-381): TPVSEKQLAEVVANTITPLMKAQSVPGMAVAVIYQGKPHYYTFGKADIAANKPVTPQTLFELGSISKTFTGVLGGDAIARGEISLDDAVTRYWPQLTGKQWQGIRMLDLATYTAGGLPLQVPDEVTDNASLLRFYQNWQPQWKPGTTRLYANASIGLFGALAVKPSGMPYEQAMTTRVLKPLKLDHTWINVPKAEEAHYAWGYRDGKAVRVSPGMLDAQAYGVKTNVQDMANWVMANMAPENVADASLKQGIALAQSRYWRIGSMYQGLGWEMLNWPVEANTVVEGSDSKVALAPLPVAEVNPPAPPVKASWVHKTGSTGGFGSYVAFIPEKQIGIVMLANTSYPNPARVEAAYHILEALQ
Sequence of beta-lactamase TEM (Escherichia coli, UniProt P62593) (P62593 24-286 limits assumed): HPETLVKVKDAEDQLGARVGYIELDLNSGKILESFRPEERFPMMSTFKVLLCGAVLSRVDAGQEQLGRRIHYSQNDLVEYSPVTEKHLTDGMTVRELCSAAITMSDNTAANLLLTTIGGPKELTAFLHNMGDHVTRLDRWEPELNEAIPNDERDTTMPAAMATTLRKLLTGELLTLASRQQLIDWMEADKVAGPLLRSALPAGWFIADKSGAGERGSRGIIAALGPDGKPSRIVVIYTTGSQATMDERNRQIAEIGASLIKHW

SMILES: O=C(Cc1ccccc1)N[C@@H]1C(=O)N2[C@@H]1SC1(CCOCC1)[C@@H]2C(=O)O (relative stereo) [Compound A, 6-(2"-phenylacetamido)-2',3',5',6'-tetrahydro-spiro[penam-2,4'-[4H]pyran]-3-carboxylic acid]
MIC relative to reference compound (=1) ([1]; reference penicillin G = 1): 2 | MIC relative to reference compound (=1) (Escherichia coli B; reference penicillin G = 1): 4 | MIC relative to reference compound (=1) ([2]; reference penicillin G = 1): 2 | MIC relative to reference compound (=1) ([3]; reference penicillin G = 1): 2

SMILES: Cc1onc(-c2ccccc2)c1C(=O)N[C@@H]1C(=O)N2[C@@H]1SC1(CCOCC1)[C@@H]2C(=O)O (relative stereo) [Compound C, 6-(5"-methyl-3"-phenyl-4"-isoxazolecarboxamido)-2',3',5',6'-tetrahydro-spiro[penam-2,4'-[4H]pyran]-3-carboxylic acid]
MIC relative to reference compound (=1) ([1]; reference oxacillin = 1): 1 | MIC relative to reference compound (=1) ([2]; reference oxacillin = 1): 2

SMILES: O=C(Cc1ccccc1)N[C@@H]1C(=O)N2[C@@H]1SC1(CCSCC1)[C@@H]2C(=O)O (relative stereo) [Compound E, 6-(2"-phenylacetamido)-2',3',5',6'-tetrahydro-spiro[penam-2,4'-[4H]thiopyran]-3-carboxylic acid]
MIC relative to reference compound (=1) ([1]; reference penicillin G = 1): 1 | MIC relative to reference compound (=1) (Escherichia coli B; reference penicillin G = 1): 5 | Rate of hydrolysis: microliters 0.005 N NaOH consumed per minute (beta-lactamase TEM [4]): 0.64 microliters 0.005 N NaOH per m | MIC relative to reference compound (=1) ([2]; reference penicillin G = 1): 10 | MIC relative to reference compound (=1) ([3]; reference penicillin G = 1): > 2

MIC relative to reference compound (=1) ([1]; reference methicillin = 1): 0.5
SMILES: COc1cccc(OC)c1C(=O)N[C@@H]1C(=O)N2[C@@H]1SC1(CCSCC1)[C@@H]2C(=O)O (relative stereo) [Compound G, 6-(2",6"-dimethoxybenzamido)-2',3',5',6'-tetrahydro-spiro[penam-2,4'-[4H]thiopyran]-3-carboxylic acid]

SMILES: N[C@@H](C(=O)NC1C(=O)N2C1SC1(CCOCC1)C2C(=O)O)c1ccccc1 (single isomer, unassigned) [Compound B, 6-(2"-amino-2"-phenylacetamido)-2',3',5',6'-tetrahydro-spiro[penam-2,4'-[4H]pyran]-3-carboxylic acid]
MIC relative to reference compound (=1) (Escherichia coli K 12-44): 3.5 | MIC relative to reference compound (=1) [5]: 1.5 | Remaining activity as percentage of initial (beta-lactamase P 99; after incubation for 9 minutes): 67% | Residual activity in the presence of beta-lactamase (beta-lactamase P 99; incubation time 0 minutes): 500 µmol | Residual activity in the presence of beta-lactamase (beta-lactamase P 99; incubation time 3 minutes): 458 µmol | Residual activity in the presence of beta-lactamase (beta-lactamase P 99; incubation time 6 minutes): 422 µmol | Residual activity in the presence of beta-lactamase (beta-lactamase P 99; incubation time 9 minutes): 334 µmol | Residual activity in the presence of beta-lactamase (beta-lactamase P 99; incubation time 12 minutes): 312 µmol | Residual activity in the presence of beta-lactamase (beta-lactamase P 99; incubation time 20 minutes): 300 µmol | Remaining activity as percentage of initial (beta-lactamase TEM [6]; after incubation for 6 minutes): 87% | Residual activity in the presence of beta-lactamase (beta-lactamase TEM [6]; incubation time 0 minutes): 500 µmol | Residual activity in the presence of beta-lactamase (beta-lactamase TEM [6]; incubation time 2 minutes): 469 µmol | Residual activity in the presence of beta-lactamase (beta-lactamase TEM [6]; incubation time 4 minutes): 453 µmol | Residual activity in the presence of beta-lactamase (beta-lactamase TEM [6]; incubation time 6 minutes): 438 µmol | Residual activity in the presence of beta-lactamase (beta-lactamase TEM [6]; incubation time 12 minutes): 334 µmol | Residual activity in the presence of beta-lactamase (beta-lactamase TEM [6]; incubation time 18 minutes): 225 µmol | MIC relative to reference compound (=1) (Escherichia coli B; reference ampicillin = 1): 3.5 | MIC relative to reference compound (=1) ([3]; reference ampicillin = 1): 1

SMILES: CC1(C)S[C@@H]2[C@H](NC(=O)[C@H](N)c3ccccc3)C(=O)N2[C@H]1C(=O)O [Ampicillin, ampicillin, reference compound]
MIC relative to reference compound (=1) [7]: 1 | MIC relative to reference compound (=1) (Escherichia coli K 12-44): 1 | MIC relative to reference compound (=1) [5]: 1 | Residual activity in the presence of beta-lactamase (beta-lactamase P 99; incubation time 0 minutes): 500 µmol | Residual activity in the presence of beta-lactamase (beta-lactamase P 99; incubation time 3 minutes): 262 µmol | Residual activity in the presence of beta-lactamase (beta-lactamase P 99; incubation time 6 minutes): 138 µmol | Residual activity in the presence of beta-lactamase (beta-lactamase P 99; incubation time 9 minutes): < 50 µmol | Residual activity in the presence of beta-lactamase (beta-lactamase P 99; incubation time 9 minutes, listed as ampicillin): no more detectable | Residual activity in the presence of beta-lactamase (beta-lactamase P 99; incubation time 12 minutes): < 50 µmol | Residual activity in the presence of beta-lactamase (beta-lactamase P 99; incubation time 20 minutes): < 50 µmol | Residual activity in the presence of beta-lactamase (beta-lactamase TEM [6]; incubation time 0 minutes): 500 µmol | Residual activity in the presence of beta-lactamase (beta-lactamase TEM [6]; incubation time 6 minutes): < 50 µmol | Residual activity in the presence of beta-lactamase (beta-lactamase TEM [6]; incubation time 6 minutes, listed as ampicillin): no more detectable | Residual activity in the presence of beta-lactamase (beta-lactamase TEM [6]; incubation time 12 minutes): < 50 µmol | Residual activity in the presence of beta-lactamase (beta-lactamase TEM [6]; incubation time 18 minutes): < 50 µmol | MIC relative to reference compound (=1) (Escherichia coli B; reference ampicillin = 1): 1 | MIC relative to reference compound (=1) ([2]; reference ampicillin = 1): 1 | MIC relative to reference compound (=1) ([3]; reference ampicillin = 1): 1

SMILES: NC(C(=O)NC1C(=O)N2C1SC1(CCSCC1)C2C(=O)O)c1ccccc1 (stereo not drawn) [Compound F, 6-(2"-amino-2"-phenylacetamido)-2',3',5',6'-tetrahydro-spiro[penam-2,4'-[4H]thiopyran]-3-carboxylic acid]
MIC relative to reference compound (=1) [7]: 15 | MIC relative to reference compound (=1) (Escherichia coli K 12-44): 10 | MIC relative to reference compound (=1) [5]: > 1.5 | Resistance to beta-lactamase as compared with ampicillin (in words) (beta-lactamase P 99): increased resistance | Resistance to beta-lactamase as compared with ampicillin (in words) (beta-lactamase TEM [6]): increased resistance | MIC relative to reference compound (=1) (Escherichia coli B; reference ampicillin = 1): 7 | MIC relative to reference compound (=1) ([2]; reference ampicillin = 1): 2 | MIC relative to reference compound (=1) ([3]; reference ampicillin = 1): 3

SMILES: O=C(Cc1ccccc1)NC1C(=O)N2C1SC1(CC[S+]([O-])CC1)C2C(=O)O (stereo not drawn) [Compound H, 6-(2"-phenylacetamido)-2',3',5',6'-tetrahydro-spiro[penam-2,4'-[4H]thiopyran]-3-carboxylic acid 1'-oxide]
MIC relative to reference compound (=1) ([1]; reference penicillin G = 1): 1 | MIC relative to reference compound (=1) (Escherichia coli B; reference penicillin G = 1): 1 | Rate of hydrolysis: microliters 0.005 N NaOH consumed per minute (beta-lactamase TEM [4]): 0.50 microliters 0.005 N NaOH per m | MIC relative to reference compound (=1) ([2]; reference penicillin G = 1): 1

SMILES: NC(C(=O)NC1C(=O)N2C1SC1(CC[S+]([O-])CC1)C2C(=O)O)c1ccccc1 (stereo not drawn) [Compound J, 6-(2"-amino-2"-phenylacetamido)-2',3',5',6'-tetrahydro-spiro[penam-2,4'-[4H]thiopyran]-3-carboxylic acid 1'-oxide]
MIC relative to reference compound (=1) [7]: 3 | MIC relative to reference compound (=1) (Escherichia coli K 12-44): 3 | MIC relative to reference compound (=1) [5]: 2 | Resistance to beta-lactamase as compared with ampicillin (in words) (beta-lactamase P 99): No change in behavior | Resistance to beta-lactamase as compared with ampicillin (in words) (beta-lactamase TEM [6]): No change in behavior | MIC relative to reference compound (=1) (Escherichia coli B; reference ampicillin = 1): 1 | MIC relative to reference compound (=1) ([2]; reference ampicillin = 1): 2 | MIC relative to reference compound (=1) ([3]; reference ampicillin = 1): 2

MIC relative to reference compound (=1) ([1]; reference methicillin = 1): 1
SMILES: COc1cccc(OC)c1C(=O)N[C@@H]1C(=O)N2[C@@H]1SC(C)(C)[C@@H]2C(=O)O [Methicillin, methicillin, reference compound]

SMILES: Cc1onc(-c2ccccc2)c1C(=O)N[C@@H]1C(=O)N2[C@@H]1SC(C)(C)[C@@H]2C(=O)O [Oxacillin, oxacillin, reference compound]
MIC relative to reference compound (=1) ([1]; reference oxacillin = 1): 1 | MIC relative to reference compound (=1) ([2]; reference oxacillin = 1): 1

SMILES: CC1(C)S[C@@H]2C(N)C(=O)N2[C@H]1C(=O)O (stereo partly drawn) [Penicillanic acid, 6-amino-penicillanic acid, reference compound]
MIC relative to reference compound (=1) [1, 8]: 1 | MIC relative to reference compound (=1) (Escherichia coli B; [8]): 1 | MIC relative to reference compound (=1) [2, 8]: 1 | MIC relative to reference compound (=1) [3, 8]: 1

SMILES: CC1(C)S[C@@H]2[C@H](NC(=O)Cc3ccccc3)C(=O)N2[C@H]1C(=O)O [Penicillin G, penicillin G, reference compound]
MIC relative to reference compound (=1) ([1]; reference penicillin G = 1): 1 | Rate of hydrolysis: microliters 0.005 N NaOH consumed per minute (beta-lactamase TEM [4]): 3.83 microliters 0.005 N NaOH per m | MIC relative to reference compound (=1) ([2]; reference penicillin G = 1): 1
